Columns and labels:
Experiment in all cases: scanMAX kinase panel
Format in all cases: binding
Details in all cases: read-out: % Control; for remaining binding at 1 µM: 1000 nM
TESK1 = molecular target: T1, TESK1 (Homo sapiens, UniProt Q15569)
T1 construct: purchased DiscoverX (scanMAX panel)
Description: (§1) Supplemental Table S2. scanMAXSM Kinome Assay Results. Complete tabulated data of all 468 kinases from the panel, including
(§2) 403 wild-type and 65 mutant isoforms. […] Cmpd 11 and Cmpd 24

MAP3K3 = molecular target: T2, MAP3K3 (Homo sapiens, UniProt Q99759)
T2 construct: purchased DiscoverX scanMAX
T2 sequence (Q99759 1-626): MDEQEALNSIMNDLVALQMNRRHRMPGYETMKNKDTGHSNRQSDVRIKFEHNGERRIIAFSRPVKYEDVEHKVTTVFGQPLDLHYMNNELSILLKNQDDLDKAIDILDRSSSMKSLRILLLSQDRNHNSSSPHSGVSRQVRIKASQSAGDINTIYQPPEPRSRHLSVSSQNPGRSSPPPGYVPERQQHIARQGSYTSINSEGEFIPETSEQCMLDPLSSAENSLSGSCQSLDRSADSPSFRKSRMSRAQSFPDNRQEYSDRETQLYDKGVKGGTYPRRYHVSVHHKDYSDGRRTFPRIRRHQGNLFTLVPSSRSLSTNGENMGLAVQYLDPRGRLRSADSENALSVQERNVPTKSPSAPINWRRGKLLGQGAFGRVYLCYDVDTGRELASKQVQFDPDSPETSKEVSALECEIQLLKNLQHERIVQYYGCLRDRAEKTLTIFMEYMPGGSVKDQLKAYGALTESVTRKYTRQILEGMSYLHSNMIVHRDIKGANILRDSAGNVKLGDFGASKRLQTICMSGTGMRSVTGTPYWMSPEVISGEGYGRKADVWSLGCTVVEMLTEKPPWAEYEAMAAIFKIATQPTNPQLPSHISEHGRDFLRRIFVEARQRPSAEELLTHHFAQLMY
Description: as §1, §2

PIK3C2B = molecular target: T3, PIK3C2B (Homo sapiens, UniProt O00750)
T3 construct: purchased DiscoverX scanMAX
T3 sequence (O00750 whole entry): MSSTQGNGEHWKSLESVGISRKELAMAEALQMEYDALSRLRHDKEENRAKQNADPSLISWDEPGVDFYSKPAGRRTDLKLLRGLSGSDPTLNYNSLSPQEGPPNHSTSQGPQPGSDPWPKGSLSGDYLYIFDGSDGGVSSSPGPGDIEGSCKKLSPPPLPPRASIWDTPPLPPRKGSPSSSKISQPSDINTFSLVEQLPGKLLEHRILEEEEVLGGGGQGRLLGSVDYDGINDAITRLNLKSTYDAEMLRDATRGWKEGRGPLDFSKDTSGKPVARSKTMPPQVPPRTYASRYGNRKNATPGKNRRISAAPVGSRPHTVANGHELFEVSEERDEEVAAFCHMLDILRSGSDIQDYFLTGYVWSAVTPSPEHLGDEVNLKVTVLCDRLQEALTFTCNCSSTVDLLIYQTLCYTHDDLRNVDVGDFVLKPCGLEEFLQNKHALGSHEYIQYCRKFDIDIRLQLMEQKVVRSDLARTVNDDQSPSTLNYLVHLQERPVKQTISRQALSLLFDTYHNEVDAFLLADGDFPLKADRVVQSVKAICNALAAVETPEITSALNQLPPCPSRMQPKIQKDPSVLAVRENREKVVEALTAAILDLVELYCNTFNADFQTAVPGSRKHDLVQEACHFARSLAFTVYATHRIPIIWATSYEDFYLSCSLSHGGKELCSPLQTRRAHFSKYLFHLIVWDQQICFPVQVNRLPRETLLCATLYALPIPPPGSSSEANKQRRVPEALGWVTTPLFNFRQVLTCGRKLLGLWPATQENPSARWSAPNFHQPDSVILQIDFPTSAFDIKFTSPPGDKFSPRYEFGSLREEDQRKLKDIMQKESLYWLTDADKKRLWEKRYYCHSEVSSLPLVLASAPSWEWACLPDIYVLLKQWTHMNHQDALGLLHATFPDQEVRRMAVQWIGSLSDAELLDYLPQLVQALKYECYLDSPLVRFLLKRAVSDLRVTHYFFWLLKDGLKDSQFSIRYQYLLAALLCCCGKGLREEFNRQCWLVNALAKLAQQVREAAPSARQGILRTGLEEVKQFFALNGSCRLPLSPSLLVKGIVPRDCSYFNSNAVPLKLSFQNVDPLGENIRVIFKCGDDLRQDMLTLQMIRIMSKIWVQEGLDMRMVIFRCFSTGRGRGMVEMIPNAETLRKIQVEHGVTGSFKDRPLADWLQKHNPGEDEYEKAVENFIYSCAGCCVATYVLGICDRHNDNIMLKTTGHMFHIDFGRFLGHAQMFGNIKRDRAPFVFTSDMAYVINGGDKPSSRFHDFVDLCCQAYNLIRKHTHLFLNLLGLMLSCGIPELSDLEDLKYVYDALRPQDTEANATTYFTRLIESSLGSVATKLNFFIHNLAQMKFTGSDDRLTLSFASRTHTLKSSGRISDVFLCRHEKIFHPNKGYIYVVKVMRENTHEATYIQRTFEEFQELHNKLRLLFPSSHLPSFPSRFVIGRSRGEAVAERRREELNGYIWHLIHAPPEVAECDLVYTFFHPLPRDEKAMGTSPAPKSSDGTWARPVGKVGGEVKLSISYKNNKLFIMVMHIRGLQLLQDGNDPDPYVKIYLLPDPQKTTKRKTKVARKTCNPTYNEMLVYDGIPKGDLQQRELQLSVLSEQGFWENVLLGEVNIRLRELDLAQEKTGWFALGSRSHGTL
Description: as §1, §2

YANK2 = molecular target: T4, YANK2 (Homo sapiens, UniProt Q9NY57)
T4 construct: purchased DiscoverX (scanMAX panel)
T4 sequence (Q9NY57 whole entry): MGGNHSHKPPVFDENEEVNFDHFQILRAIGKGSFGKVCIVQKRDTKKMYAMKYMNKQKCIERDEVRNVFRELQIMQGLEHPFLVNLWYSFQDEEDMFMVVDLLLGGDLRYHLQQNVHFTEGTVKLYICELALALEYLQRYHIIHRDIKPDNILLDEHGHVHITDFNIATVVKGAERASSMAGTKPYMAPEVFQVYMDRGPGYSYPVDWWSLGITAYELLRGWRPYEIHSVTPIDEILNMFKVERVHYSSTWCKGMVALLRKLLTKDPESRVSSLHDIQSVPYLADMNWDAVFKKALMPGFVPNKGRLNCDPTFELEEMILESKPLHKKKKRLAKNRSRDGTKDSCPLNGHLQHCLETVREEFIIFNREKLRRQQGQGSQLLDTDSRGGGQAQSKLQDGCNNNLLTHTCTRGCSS
Description: as §1, §2

TIE2 = molecular target: T5, TIE2 (Homo sapiens, UniProt Q02763)
T5 construct: purchased DiscoverX (scanMAX panel)
T5 sequence (Q02763 23-1124): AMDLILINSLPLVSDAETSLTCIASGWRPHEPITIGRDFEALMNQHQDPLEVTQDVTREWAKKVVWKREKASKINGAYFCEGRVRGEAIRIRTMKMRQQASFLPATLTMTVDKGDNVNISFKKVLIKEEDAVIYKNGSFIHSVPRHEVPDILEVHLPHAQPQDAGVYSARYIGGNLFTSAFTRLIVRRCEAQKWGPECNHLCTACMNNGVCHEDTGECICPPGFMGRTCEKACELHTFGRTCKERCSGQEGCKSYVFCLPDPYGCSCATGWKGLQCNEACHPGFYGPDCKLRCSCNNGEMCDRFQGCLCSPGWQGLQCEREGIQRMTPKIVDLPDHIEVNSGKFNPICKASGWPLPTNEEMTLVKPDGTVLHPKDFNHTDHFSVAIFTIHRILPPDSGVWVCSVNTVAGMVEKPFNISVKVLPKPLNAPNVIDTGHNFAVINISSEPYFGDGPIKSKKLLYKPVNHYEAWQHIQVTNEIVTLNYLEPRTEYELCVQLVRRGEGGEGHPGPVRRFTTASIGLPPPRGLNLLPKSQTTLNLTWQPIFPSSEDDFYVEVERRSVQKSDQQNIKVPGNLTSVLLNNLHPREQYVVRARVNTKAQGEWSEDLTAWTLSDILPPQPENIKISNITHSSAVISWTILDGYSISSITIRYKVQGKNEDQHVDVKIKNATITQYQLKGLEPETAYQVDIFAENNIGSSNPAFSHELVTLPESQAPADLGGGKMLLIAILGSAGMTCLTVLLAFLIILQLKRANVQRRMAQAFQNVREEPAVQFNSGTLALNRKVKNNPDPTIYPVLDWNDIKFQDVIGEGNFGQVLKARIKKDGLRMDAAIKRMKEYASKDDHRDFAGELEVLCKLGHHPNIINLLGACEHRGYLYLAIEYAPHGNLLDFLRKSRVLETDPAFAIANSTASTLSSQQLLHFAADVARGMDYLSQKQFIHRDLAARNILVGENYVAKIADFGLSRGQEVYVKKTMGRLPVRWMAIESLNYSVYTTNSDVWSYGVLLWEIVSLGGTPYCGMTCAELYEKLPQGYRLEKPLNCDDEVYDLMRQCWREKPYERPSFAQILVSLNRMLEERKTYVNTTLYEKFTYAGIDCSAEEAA
Description: as §1, §2

NEK5 = molecular target: T6, NEK5 (Homo sapiens, UniProt Q6P3R8)
T6 construct: purchased DiscoverX scanMAX
T6 sequence (Q6P3R8 1-708): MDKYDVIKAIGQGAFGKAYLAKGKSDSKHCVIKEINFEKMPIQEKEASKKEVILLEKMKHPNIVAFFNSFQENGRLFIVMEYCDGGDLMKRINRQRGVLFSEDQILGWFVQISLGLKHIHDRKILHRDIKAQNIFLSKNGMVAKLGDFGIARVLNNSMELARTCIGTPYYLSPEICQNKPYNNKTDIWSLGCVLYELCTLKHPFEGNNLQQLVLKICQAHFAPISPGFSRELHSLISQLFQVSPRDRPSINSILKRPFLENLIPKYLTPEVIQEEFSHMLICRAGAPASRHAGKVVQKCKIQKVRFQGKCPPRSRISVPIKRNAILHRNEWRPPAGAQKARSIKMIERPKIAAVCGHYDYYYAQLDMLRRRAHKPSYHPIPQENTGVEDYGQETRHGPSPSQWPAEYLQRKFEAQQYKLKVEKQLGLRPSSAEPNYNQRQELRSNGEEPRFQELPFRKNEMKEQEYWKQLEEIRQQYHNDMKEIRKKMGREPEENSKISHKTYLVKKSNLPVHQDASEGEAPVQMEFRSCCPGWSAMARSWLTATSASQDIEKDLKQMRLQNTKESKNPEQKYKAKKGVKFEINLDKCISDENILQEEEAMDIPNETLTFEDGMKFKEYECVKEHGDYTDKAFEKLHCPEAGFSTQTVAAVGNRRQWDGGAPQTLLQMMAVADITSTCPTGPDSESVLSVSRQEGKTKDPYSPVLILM
Description: as §1, §2

BLK = molecular target: T7, BLK (Homo sapiens, UniProt P51451)
T7 construct: purchased DiscoverX scanMAX
T7 sequence (P51451 whole entry): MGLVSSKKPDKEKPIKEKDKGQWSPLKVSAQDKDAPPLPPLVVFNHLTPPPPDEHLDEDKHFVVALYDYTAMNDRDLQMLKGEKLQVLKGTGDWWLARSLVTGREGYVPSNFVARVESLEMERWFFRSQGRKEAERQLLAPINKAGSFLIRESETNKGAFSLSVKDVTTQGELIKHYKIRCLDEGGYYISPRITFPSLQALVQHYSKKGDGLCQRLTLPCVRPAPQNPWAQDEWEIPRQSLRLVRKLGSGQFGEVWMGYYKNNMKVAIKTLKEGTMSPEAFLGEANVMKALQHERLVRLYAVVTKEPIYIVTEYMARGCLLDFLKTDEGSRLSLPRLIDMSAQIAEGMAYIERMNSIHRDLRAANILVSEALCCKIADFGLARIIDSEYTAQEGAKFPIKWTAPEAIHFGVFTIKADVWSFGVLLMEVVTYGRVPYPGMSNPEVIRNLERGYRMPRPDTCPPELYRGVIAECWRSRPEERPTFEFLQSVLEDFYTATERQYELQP
Description: as §1, §2

MEK5 = molecular target: T8, MEK5 (Homo sapiens, UniProt Q13163)
T8 construct: purchased DiscoverX scanMAX
T8 sequence (Q13163 1-448): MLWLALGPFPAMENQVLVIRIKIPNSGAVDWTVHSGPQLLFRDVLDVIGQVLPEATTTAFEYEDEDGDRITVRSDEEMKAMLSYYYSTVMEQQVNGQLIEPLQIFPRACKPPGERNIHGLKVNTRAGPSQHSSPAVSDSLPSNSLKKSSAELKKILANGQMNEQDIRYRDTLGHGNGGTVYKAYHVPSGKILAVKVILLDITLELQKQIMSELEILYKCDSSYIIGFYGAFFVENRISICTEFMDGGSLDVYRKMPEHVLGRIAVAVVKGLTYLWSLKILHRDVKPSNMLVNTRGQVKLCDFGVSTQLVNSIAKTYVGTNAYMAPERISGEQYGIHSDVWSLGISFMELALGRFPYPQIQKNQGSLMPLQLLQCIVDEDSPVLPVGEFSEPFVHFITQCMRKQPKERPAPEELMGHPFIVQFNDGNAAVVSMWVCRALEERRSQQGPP
Description: as §1, §2

YANK1 = molecular target: T9, YANK1 (Homo sapiens, UniProt Q8WU08)
T9 construct: purchased DiscoverX (scanMAX panel)
T9 sequence (Q8WU08 whole entry): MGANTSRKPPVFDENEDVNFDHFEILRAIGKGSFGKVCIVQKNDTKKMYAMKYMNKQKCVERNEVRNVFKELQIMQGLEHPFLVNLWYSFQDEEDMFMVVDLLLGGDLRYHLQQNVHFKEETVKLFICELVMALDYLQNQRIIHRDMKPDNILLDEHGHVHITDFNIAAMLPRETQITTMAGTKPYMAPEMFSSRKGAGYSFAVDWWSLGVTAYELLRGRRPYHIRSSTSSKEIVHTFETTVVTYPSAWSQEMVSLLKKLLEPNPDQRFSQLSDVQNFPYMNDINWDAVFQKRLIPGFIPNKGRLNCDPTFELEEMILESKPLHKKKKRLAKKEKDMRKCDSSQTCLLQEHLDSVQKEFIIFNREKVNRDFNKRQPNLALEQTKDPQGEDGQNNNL
Description: as §1, §2

FLT3-autoinhibited = molecular target: T10, FLT3-autoinhibited (Homo sapiens, UniProt P36888)
T10 construct: purchased DiscoverX scanMAX
T10 sequence (P36888 564-993 limits assumed): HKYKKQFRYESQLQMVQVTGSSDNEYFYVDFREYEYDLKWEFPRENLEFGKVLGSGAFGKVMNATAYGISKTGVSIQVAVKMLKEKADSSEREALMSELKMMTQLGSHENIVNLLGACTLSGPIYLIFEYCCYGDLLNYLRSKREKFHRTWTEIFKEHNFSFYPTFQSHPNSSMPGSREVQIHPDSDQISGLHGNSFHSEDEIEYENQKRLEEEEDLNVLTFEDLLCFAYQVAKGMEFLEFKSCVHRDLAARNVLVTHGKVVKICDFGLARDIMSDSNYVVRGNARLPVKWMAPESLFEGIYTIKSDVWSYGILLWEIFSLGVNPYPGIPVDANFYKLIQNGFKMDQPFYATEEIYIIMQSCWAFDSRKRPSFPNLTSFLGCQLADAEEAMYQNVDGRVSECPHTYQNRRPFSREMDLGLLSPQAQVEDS
Description: as §1, §2

T1 sequence (Q15569 whole entry): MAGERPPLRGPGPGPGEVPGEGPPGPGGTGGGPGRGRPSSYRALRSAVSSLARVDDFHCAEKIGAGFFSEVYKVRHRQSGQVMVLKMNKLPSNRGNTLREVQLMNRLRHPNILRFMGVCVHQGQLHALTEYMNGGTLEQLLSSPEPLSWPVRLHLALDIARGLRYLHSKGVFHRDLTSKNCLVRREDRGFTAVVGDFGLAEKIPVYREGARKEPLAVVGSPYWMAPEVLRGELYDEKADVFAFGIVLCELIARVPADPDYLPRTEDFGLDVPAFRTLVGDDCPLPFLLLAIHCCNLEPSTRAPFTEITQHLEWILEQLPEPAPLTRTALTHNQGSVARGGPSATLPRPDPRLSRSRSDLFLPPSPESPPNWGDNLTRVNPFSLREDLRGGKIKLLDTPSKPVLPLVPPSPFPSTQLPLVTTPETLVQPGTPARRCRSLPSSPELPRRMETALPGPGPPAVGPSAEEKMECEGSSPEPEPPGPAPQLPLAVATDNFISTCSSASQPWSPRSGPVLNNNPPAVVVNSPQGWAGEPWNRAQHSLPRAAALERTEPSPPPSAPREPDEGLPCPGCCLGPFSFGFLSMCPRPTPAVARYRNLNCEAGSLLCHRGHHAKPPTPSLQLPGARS

Row | Compound | remaining binding at 1 µM (TESK1) [%] | remaining binding at 1 µM (MAP3K3) [%] | remaining binding at 1 µM (PIK3C2B) [%] | remaining binding at 1 µM (YANK2) [%] | remaining binding at 1 µM (TIE2) [%] | remaining binding at 1 µM (NEK5) [%] | remaining binding at 1 µM (BLK) [%] | remaining binding at 1 µM (MEK5) [%] | remaining binding at 1 µM (YANK1) [%] | remaining binding at 1 µM (FLT3-autoinhibited) [%] | remaining binding at 0.1 µM (TESK1; 100 nM) [%] | remaining binding at 0.1 µM (MAP3K3; 100 nM) [%] | remaining binding at 0.1 µM (PIK3C2B; 100 nM) [%] | remaining binding at 0.1 µM (YANK2; 100 nM) [%] | remaining binding at 0.1 µM (TIE2; 100 nM) [%] | remaining binding at 0.1 µM (NEK5; 100 nM) [%] | remaining binding at 0.1 µM (BLK; 100 nM) [%] | remaining binding at 0.1 µM (MEK5; 100 nM) [%] | remaining binding at 0.1 µM (YANK1; 100 nM) [%] | remaining binding at 0.1 µM (FLT3-autoinhibited; 100 nM) [%]
1 | Cc1nc(N)c2c(-c3ccc(NC(=O)[C@H](O)c4cccc(F)c4)cc3C)cn(C)c2n1 [Compound 24] | 100 | 100 | 100 | 100 | 100 | 100 | 100 | 100 | 94 | 100 | – | – | – | – | – | – | – | – | – | –
2 | Cc1cc(NC(=O)[C@H](O)c2cccc(F)c2)ccc1-c1cn(C)c2ncnc(N)c12 [Compound 11, (R)-N-(4-(4-amino-7-methyl-7H-pyrrolo[2,3-d]pyrimidin-5-yl)-3-methylphenyl)-2-(3-fluorophenyl)-2-hydroxy acetamide] | 15 | 32 | 27 | 11 | 14 | 34 | 19 | 1.1 | 28 | 57 | – | – | – | – | – | – | – | – | – | –
3 | Cc1nc(N)c2c(-c3ccc(NC(=O)[C@H](O)c4cccc(C(F)(F)F)c4)cc3C)cn(C)c2n1 [Compound 26] | 99 | 92 | 78 | 63 | 65 | 96 | 91 | 68 | 67 | 65 | 97 | 100 | 100 | 92 | 100 | 100 | 100 | 100 | 96 | 100
